Experimental data taken from US10174011B2, “Heterocyclic compounds, process for preparation of the same and use thereof” (SHANGHAI INSTITUTE OF MATERIA MEDICA, CHINESE ACADEMY OF …, priority 2014, dated 2019).
Structures can show the parent of a compound that is named as a salt. Where two headings read alike, the source gives them in different places.

Columns and labels:
[1] = molecular target: human recombinant 5-HT2A receptor (Homo sapiens (Human), UniProt P28223); experiment: 5-HT2A receptor antagonism activity test (FLIPR Calcium 5 Assay Kit); settings: read-out: 5-HT2A receptor antagonism (IC50, mol/L)
Chain of human recombinant 5-HT2A receptor (P28223 whole entry): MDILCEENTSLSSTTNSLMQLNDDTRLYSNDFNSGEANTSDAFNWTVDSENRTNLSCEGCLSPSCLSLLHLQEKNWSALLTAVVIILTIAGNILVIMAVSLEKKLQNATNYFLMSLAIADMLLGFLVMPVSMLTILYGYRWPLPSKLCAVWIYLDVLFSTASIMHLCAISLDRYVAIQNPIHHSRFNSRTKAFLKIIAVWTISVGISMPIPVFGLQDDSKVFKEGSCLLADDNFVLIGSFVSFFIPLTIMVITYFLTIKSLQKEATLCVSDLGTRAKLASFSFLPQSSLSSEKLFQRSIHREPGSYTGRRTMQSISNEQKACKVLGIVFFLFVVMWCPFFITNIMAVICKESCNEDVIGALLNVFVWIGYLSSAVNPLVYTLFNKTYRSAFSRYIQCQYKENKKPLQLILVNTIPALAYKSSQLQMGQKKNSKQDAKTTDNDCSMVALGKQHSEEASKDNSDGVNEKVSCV

[2] = molecular target: human recombinant 5-HT1A receptor (Homo sapiens (Human), UniProt P08908); experiment: 5-HT1A receptor agonism activity test (inhibition of cAMP production, LANCE cAMP 384 Kit); assay type: cell-based; settings: HEK293 cells expressing human recombinant 5-HT1A receptor; test concentration 0.1 nM-10000 nM; read-out: 5-HT1A receptor agonism (EC50, mol/L)
Chain of human recombinant 5-HT1A receptor (P08908 whole entry): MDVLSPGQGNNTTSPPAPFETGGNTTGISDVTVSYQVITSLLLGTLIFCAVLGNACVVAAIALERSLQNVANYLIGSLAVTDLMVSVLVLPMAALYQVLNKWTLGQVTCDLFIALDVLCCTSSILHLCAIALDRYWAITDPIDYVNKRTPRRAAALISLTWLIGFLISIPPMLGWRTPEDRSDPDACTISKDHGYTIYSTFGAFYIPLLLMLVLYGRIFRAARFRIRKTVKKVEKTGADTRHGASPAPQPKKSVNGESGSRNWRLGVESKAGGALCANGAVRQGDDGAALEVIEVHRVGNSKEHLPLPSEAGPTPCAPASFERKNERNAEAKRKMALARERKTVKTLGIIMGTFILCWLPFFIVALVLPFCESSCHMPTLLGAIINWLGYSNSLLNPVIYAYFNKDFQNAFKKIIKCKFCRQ
Text: Pharmacological Test 1) 5-HT1A Receptor Agonism Activity Test

[3] = molecular target: human recombinant D2 receptor (Homo sapiens (Human), UniProt P14416); experiment: D2 receptor antagonism activity test (inhibition of dopamine-induced decrease of cAMP production, LANCE cAMP 384 Kit); settings: read-out: D2 receptor antagonism (IC50, mol/L), HEK293 cells expressing human recombinant D2 receptor, 0.1 nM-10000 nM
Chain of human recombinant D2 receptor (P14416 whole entry): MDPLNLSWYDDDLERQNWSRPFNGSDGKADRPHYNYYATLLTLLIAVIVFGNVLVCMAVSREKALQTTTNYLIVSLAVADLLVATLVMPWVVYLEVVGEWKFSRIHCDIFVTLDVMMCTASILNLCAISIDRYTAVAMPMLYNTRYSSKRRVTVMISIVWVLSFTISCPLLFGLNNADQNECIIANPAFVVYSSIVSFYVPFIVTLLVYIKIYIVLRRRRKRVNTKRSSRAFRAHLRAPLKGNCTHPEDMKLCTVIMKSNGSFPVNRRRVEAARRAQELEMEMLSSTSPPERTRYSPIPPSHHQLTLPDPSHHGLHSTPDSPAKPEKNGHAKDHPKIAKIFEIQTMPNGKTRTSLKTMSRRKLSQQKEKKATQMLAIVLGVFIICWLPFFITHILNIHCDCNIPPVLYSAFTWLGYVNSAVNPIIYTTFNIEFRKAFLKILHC

[4] = CHO-K1 cells expressing human recombinant 5-HT2A receptor, α-methyl-5-hydroxytryptamine 300 nM, 0.1 nM-10000 nM

CC(=O)n1cc(CCCCN2CCN(c3cccc4sccc34)CC2)c2cc(C#N)ccc21 [Compound of example 110, 1-acetyl-3-(4-(4-(benzo[b]thiophen-4-yl)piperazin-1-yl)butyl)-1H-indole-5-carbonitrile]
IC50 [1, 4]: 1.76 µM | EC50 [2]: 0.084 µM | IC50 [3]: 0.0576 µM

N#Cc1ccc2[nH]cc(CCCCN3CCN(c4cccc5sccc45)CC3)c2c1 [Compound of example 70, 3-(4-(4-(benzo[b]thiophen-4-yl)piperazin-1-yl)butyl)-1H-indole-5-carbonitrile]
IC50 [1, 4]: 0.332 µM | EC50 [2]: 0.0097 µM | IC50 [3]: 0.0797 µM

COc1ccc2[nH]cc(CCCCN3CCN(c4cccc5sccc45)CC3)c2c1 [Compound of example 107, 3-(4-(4-(benzo[b]thiophen-4-yl)piperazin-1-yl)butyl)-5-methoxy-1H-indole]
IC50 [1, 4]: 0.393 µM | EC50 [2]: 0.00795 µM | IC50 [3]: 0.00843 µM

O=C1COc2cc(F)c(CCN3CCN(c4cccc5sccc45)CC3)cc2N1 [Compound of example 66, 6-(2-(4-(benzo[b]thiophen-4-yl)piperazin-1-yl)ethyl)-7-fluoro-2H-benzo[b][1,4]oxazin-3(4H)-one]
IC50 [1, 4]: 0.0815 µM | EC50 [2]: 0.00129 µM | IC50 [3]: 0.0617 µM

CC(=O)Nc1nc2cc(CCN3CCN(c4cccc5sccc45)CC3)ccc2s1 [Compound of example 118, N-(5-(2-(4-(benzo[b]thiophen-4-yl)piperazin-1-yl)ethyl)benzo[d]thiazol-2-yl)acetamide]
IC50 [1, 4]: 0.075 µM | EC50 [2]: 0.000602 µM | IC50 [3]: 0.119 µM

O=C1COc2ccc(CCN3CCC(c4cccc5sccc45)CC3)cc2N1 [Compound of example 97, 6-(2-(4-(benzo[b]thiophen-4-yl)piperidin-1-yl)ethyl)-2H-benzo[b][1,4]oxazin-3(4H)-one]
IC50 [1, 4]: 0.173 µM | EC50 [2]: 0.000223 µM | IC50 [3]: 0.00681 µM

CN1C(=O)COc2ccc(CCN3CCN(c4cccc5sccc45)CC3)cc21 [Compound of example 114, 6-(2-(4-(benzo[b]thiophen-4-yl)piperazin-1-yl)ethyl)-4-methyl-2H-benzo[b][1,4]oxazin-3(4H)-one]
IC50 [1, 4]: 0.461 µM | EC50 [2]: 0.00808 µM | IC50 [3]: 0.0269 µM

Nc1nc2c(CCN3CCN(c4cccc5sccc45)CC3)cccc2s1 [Compound of example 120, 4-(2-(4-(benzo[b]thiophen-4-yl)piperazin-1-yl)ethyl)benzo[d]thiazol-2-amine]
IC50 [3]: 0.229 µM

c1ccc2[nH]c(CN3CCN(c4cccc5sccc45)CC3)nc2c1 [Compound of example 58, 2-((4-(benzo[b]thiophen-4-yl)piperazin-1-yl)methyl)-1H-benzo[d]imidazole]
IC50 [1, 4]: 2.17 µM | EC50 [2]: 0.00455 µM | IC50 [3]: 0.101 µM

O=C1CCc2cc(CCCCN3CCC(c4cccc5sccc45)CC3)ccc2N1 [Compound of example 104, 6-(4-(4-(benzo[b]thiophen-4-yl)piperidin-1-yl)butyl)-3,4-dihydroquinolin-2(1H)-one]
IC50 [1, 4]: 0.106 µM | EC50 [2]: 0.0123 µM | IC50 [3]: 0.0988 µM

Nc1nc2cc(CCN3CCN(c4cccc5sccc45)CC3)ccc2s1 [Compound of example 116, 5-(2-(4-(benzo[b]thiophen-4-yl)piperazin-1-yl)ethyl)benzo[d]thiazol-2-amine]
IC50 [3]: 0.00597 µM

N#Cc1ccc2[nH]cc(CCCN3CCN(c4cccc5sccc45)CC3)c2c1 [Compound of example 108, 3-(3-(4-(benzo[b]thiophen-4-yl)piperazin-1-yl)propyl)-1H-indole-5-carbonitrile]
IC50 [1, 4]: 0.819 µM | EC50 [2]: 0.0449 µM | IC50 [3]: 0.0217 µM

O=C1Cc2cc(CCN3CCN(c4cncc5sccc45)CC3)c(Cl)cc2N1 [Compound of example 42, 6-chloro-5-(2-(4-(thieno[2,3-c]pyridin-4-yl)piperazin-1-yl)ethyl)indolin-2-one]
IC50 [1, 4]: 0.115 µM | EC50 [2]: 0.1 µM | IC50 [3]: 0.27 µM

CC(=O)Nc1nc2cccc(CCN3CCN(c4cccc5sccc45)CC3)c2s1 [Compound of example 119, N-(7-(2-(4-(benzo[b]thiophen-4-yl)piperazin-1-yl)ethyl)benzo[d]thiazol-2-yl)acetamide]
IC50 [1, 4]: 0.0343 µM | EC50 [2]: 0.000787 µM | IC50 [3]: 0.00469 µM

O=c1ccc2ccc(CCN3CCN(c4cccc5sccc45)CC3)cc2[nH]1 [Compound of example 9, 7-(2-(4-(benzo[b]thiophen-4-yl)piperazin-1-yl)ethyl)quinolin-2(1H)-one]
IC50 [1]: 0.0956 µM | EC50 [2]: 0.000972 µM | IC50 [3]: 0.00706 µM

O=C1Cc2cc(CCN3CCN(c4cccc5sc(F)cc45)CC3)c(Cl)cc2N1 [Compound of example 113, 6-chloro-5-(2-(4-(2-fluorobenzo[b]thiophen-4-yl)piperazin-1-yl)ethyl)indolin-2-one]
IC50 [1, 4]: 0.716 µM | EC50 [2]: 0.00909 µM | IC50 [3]: 0.061 µM

N#Cc1ccc2[nH]cc(CCN3CCN(c4cccc5sccc45)CC3)c2c1 [Compound of example 109, 3-(2-(4-(benzo[b]thiophen-4-yl)piperazin-1-yl)ethyl)-1H-indole-5-carbonitrile]
IC50 [1, 4]: 0.2 µM | IC50 [3]: 0.243 µM

O=C1Cc2cc(CCCCN3CCN(c4cccc5sc(F)cc45)CC3)ccc2N1 [Compound of example 101, 5-(4-(4-(2-fluorobenzo[b]thiophen-4-yl)piperazin-1-yl)butyl)indolin-2-one]
IC50 [1, 4]: 0.759 µM | EC50 [2]: 0.0168 µM | IC50 [3]: 0.00184 µM

O=C1CCc2cc(CCCCN3CCN(c4cccc5sccc45)CC3)ccc2N1 [Compound of example 111, 6-(4-(4-(benzo[b]thiophen-4-yl)piperazin-1-yl)butyl)-3,4-dihydroquinolin-2(1H)-one]
IC50 [1, 4]: 0.4 µM | EC50 [2]: 0.0295 µM | IC50 [3]: 0.0239 µM

O=c1ccc2ccc(CCCCCN3CCN(c4cccc5sccc45)CC3)cc2[nH]1 [Compound of example 11, 7-(5-(4-(benzo[b]thiophen-4-yl)piperazin-1-yl)pentyl)quinolin-2(1H)-one]
IC50 [1, 4]: 0.209 µM | EC50 [2]: 0.00195 µM

O=C1N[C@@H]2[C@@H](CS[C@@H]2CCCCCN2CCN(c3cccc4sccc34)CC2)N1 [Compound of example 134, (3aR,4R,6aS)-4-(5-(4-(benzo[b]thiophen-4-yl)piperazin-1-yl)pentyl)tetrahydro-1H-thieno[3,4-d]imidazol-2(3H)-one]
IC50 [1, 4]: 0.0167 µM | EC50 [2]: 0.00075 µM | IC50 [3]: 0.0379 µM

COC(CN1CCN(c2cccc3sccc23)CC1)c1cccc2c1OCC(=O)N2 (centres unmarked) [Compound of example 144, 8-(2-(4-(benzo[b]thiophen-4-yl)piperazin-1-yl)-1-methoxyethyl)-2H-benzo[b][1,4]oxazin-3(4H)-one]
IC50 [1]: 0.017 µM | EC50 [2]: 0.00893 µM | IC50 [3]: 0.0658 µM

O=C1CCc2cc(CCN3CCC(c4cccc5sccc45)CC3)ccc2N1 [Compound of example 98, 6-(2-(4-(benzo[b]thiophen-4-yl)piperidin-1-yl)ethyl)-3,4-dihydroquinolin-2(1H)-one]
IC50 [1, 4]: 0.185 µM | EC50 [2]: 0.0029 µM | IC50 [3]: 0.0124 µM

O=c1ccc2ccc(CCN3CCN(c4cccc5c4CCS5)CC3)cc2[nH]1 [Compound of example 25, 7-(2-(4-(2,3-dihydrobenzo[b]thiophen-4-yl)piperazin-1-yl)ethyl)quinolin-2(1H)-one]
IC50 [1]: 0.0779 µM | EC50 [2]: 0.000824 µM | IC50 [3]: 0.0851 µM

COc1ccc2[nH]cc(CCCN3CCN(c4cccc5sccc45)CC3)c2c1 [Compound of example 106, 3-(3-(4-(benzo[b]thiophen-4-yl)piperazin-1-yl)propyl)-5-methoxy-1H-indole]
IC50 [1, 4]: 0.662 µM | EC50 [2]: 0.0104 µM | IC50 [3]: 0.543 µM

CC(=O)Nc1nc2ccc(CCN3CCN(c4cccc5sccc45)CC3)cc2s1 [Compound of example 153, N-(6-(2-(4-(benzo[b]thiophen-4-yl)piperazin-1-yl)ethyl)benzo[d]thiazol-2-yl)acetamide]
IC50 [1, 4]: 0.0189 µM | EC50 [2]: 0.00235 µM | IC50 [3]: 0.0038 µM

COc1ccc2[nH]cc(CCN3CCN(c4cccc5sccc45)CC3)c2c1 [Compound of example 105, 3-(2-(4-(benzo[b]thiophen-4-yl)piperazin-1-yl)ethyl)-5-methoxy-1H-indole]
IC50 [1]: 0.0255 µM

O=C1Cc2cc(C(O)CN3CCN(c4cccc5sccc45)CC3)ccc2N1 (centres unmarked) [Compound of example 145, 5-(2-(4-(benzo[b]thiophen-4-yl)piperazin-1-yl)-1-hydroxyethyl)indolin-2-one]
IC50 [1, 4]: 0.0147 µM | EC50 [2]: 0.0063 µM | IC50 [3]: 0.192 µM

O=c1[nH]cnc2ccc(CCCCCN3CCN(c4cccc5sccc45)CC3)cc12 [Compound of example 34, 6-(5-(4-(benzo[b]thiophen-4-yl)piperazin-1-yl)pentyl)quinazolin-4(3H)-one hydrochloride]
EC50 [2]: 0.054 µM | IC50 [3]: 0.324 µM

c1cc(N2CCN(CCCCc3nnnn3C3CCCCC3)CC2)c2ccsc2c1 [Compound of example 138, 1-(benzo[b]thiophen-4-yl)-4-(4-(1-cyclohexyl-1H-tetrazol-5-yl)butyl)piperazine hydrochloride]
IC50 [3]: 0.0094 µM

Cc1nc2c(OCc3ccccc3)cccn2c(=O)c1CCN1CCN(c2cccc3sccc23)CC1 [Compound of example 17, 3-(2-(4-(benzo[b]thiophen-4-yl)piperazin-1-yl)ethyl)-9-(benzyloxy)-2-methyl-4H-pyrido[1,2-a]pyrimidin-4-one hydrochloride]
IC50 [1, 4]: 0.35 µM
